# Earlier results, collected in patent publication US8962595B2, “Compositions of small molecule therapeutics” (Nexmed Holdings, Inc., priority 2010, dated 2015).
# Settings: water
compound,measurement,value
"NS(=O)(=O)c1cc2c(cc1Cl)N=CNS2(=O)=O [Chlorothiazide, chlorothiazide]",Sol. H2O (reported solubility from the literature),3000 µg/mL
